This note sets out measurements from patent publication US10653666B1, “Cardioprotective nano-pharmaceutical formulation” (King Abdulaziz University, priority 2020, dated 2020).

What all share (type): in vivo, rat
Assay [1] relates to MetS animals (high-fructose high-salt diet). As to the kind of experiment: Overall protection from cardiovascular complication of metabolic syndrome in rats. Particulars: oral 25 mg/kg/day in the last 6 weeks. As to the method:
Rats used in this study were male Wistar 6-8 weeks old rats weighing 180-200 g (King Fand Medical Research Center, King Abdulaziz University, Jeddah, Saudi Arabia). Clear polypropylene cages were used to house 4 rats each and included access to purified water and standard rodent pellets. Constant animal housing conditions applied constituting of alternating 12 hours light and dark, a temperature of 22±3° C., a relative humidity of 50-60% and adequate ventilation. Experimental protocol was approved by the Research Ethical Committee, Faculty of Pharmacy, King Abdulaziz University, Jeddah, Saudi Arabia and was conducted in accordance with the Saudi Arabia Research Bioethics and Regulations. Animals were randomly divided into 5 experimental groups; Control (C) rats received regular tap water and food pellets. MetS group (M) in which fructose (10%) was added to drinking water and NaCl (3%) to food pellets. This regimen began in 6-week old rats and continued for 12 weeks. Standard quercetin group (MQ) administered 25 mg/kg quercetin suspension every day in the last 6 weeks of fructose and salt administration. Nano formula vehicle group (MN) received the same volumes of SNEDDS ingredients (Pumpkin seed oil, D-α-tocopheryl polyethylene glycol succinate (TPGS) and PEG 200) without quercetin every day in the last 6 weeks of fructose and salt administration. […]

For assay [2] the test system is unchanged. As to the kind of experiment: Blood pressure in metabolic syndrome rats. Particulars: oral 25 mg/kg/day in the last 6 weeks, vs MetS, p<0.05. Here is the method: (§1) Rats used in this study were male Wistar 6-8 weeks old rats weighing 180-200 g (King Fand Medical Research Center, King Abdulaziz University, Jeddah, Saudi Arabia). Clear polypropylene cages were used to house 4 rats each and included access to purified water and standard rodent pellets. Constant animal housing conditions applied constituting of alternating 12 hours light and dark, a temperature of 22±3° C., a relative humidity of 50-60% and adequate ventilation. Experimental protocol was approved by the Research Ethical Committee, Faculty of Pharmacy, King Abdulaziz University, Jeddah, Saudi Arabia and was conducted in accordance with the Saudi Arabia Research Bioethics and Regulations.
Animals were randomly divided into 5 experimental groups; Control (C) rats received regular tap water and food pellets. MetS group (M) in which fructose (10%) was added to drinking water and NaCl (3%) to food pellets. […]
Invasive real-time recording of cardiac contractility was carried out according to the method described in previous publication from our laboratories (El-Bassossy et al., 2017). After urethane anaethesia, animals were placed on controlled heating pads, and body temperature, measured via a rectal probe, was maintained at 37° C. […] After stabilization for 5 min, the signals were continuously recorded at a sampling rate of 1000 s−1. […]

Assay [3] shares this test system. Put plainly: Cardiac conductivity (surface ECG) recording in metabolic syndrome rats. Particulars: oral 25 mg/kg/day in the last 6 weeks, vs MetS, p<0.05. Here is the method: Rats used in this study were male Wistar 6-8 weeks old rats weighing 180-200 g (King Fand Medical Research Center, King Abdulaziz University, Jeddah, Saudi Arabia). Clear polypropylene cages were used to house 4 rats each and included access to purified water and standard rodent pellets. Constant animal housing conditions applied constituting of alternating 12 hours light and dark, a temperature of 22±3° C., a relative humidity of 50-60% and adequate ventilation. Experimental protocol was approved by the Research Ethical Committee, Faculty of Pharmacy, King Abdulaziz University, Jeddah, Saudi Arabia and was conducted in accordance with the Saudi Arabia Research Bioethics and Regulations. Animals were randomly divided into 5 experimental groups; Control (C) rats received regular tap water and food pellets. MetS group (M) in which fructose (10%) was added to drinking water and NaCl (3%) to food pellets. This regimen began in 6-week old rats and continued for 12 weeks. Standard quercetin group (MQ) administered 25 mg/kg quercetin suspension every day in the last 6 weeks of fructose and salt administration. […] The standard limb lead II of the surface ECG was recorded by the Powerlab system (ADI Instruments) connected to a PC running LabChart professional software (version 7.3) containing an ECG module, which detects different components of the ECG. […]

The test system is the same in assay [4]. As to the kind of experiment: Invasive real-time cardiac contractility recording in metabolic syndrome rats. The conditions noted are these: vs MetS; for Cardiac contractility (contractility index): oral 25 mg/kg/day in the last 6 weeks of 12 weeks diet. As to the method:
as §1
Animals were randomly divided into 5 experimental groups; Control (C) rats received regular tap water and food pellets. MetS group (M) in which fructose (10%) was added to drinking water and NaCl (3%) to food pellets. This regimen began in 6-week old rats and continued for 12 weeks. Standard quercetin group (MQ) administered 25 mg/kg quercetin suspension every day in the last 6 weeks of fructose and salt administration. Nano formula vehicle group (MN) received the same volumes of SNEDDS ingredients (Pumpkin seed oil, D-α-tocopheryl polyethylene glycol succinate (TPGS) and PEG 200) without quercetin every day in the last 6 weeks of fructose and salt administration. The nanoformula group (MNQ) administered 25 mg/kg of quercetin in the form of nano-pharmaceutical formulation every day in the last 6 weeks of fructose and salt administration.
Invasive real-time recording of cardiac contractility was carried out according to the method described in previous publication from our laboratories (El-Bassossy et al., 2017). After urethane anaethesia, animals were placed on controlled heating pads, and body temperature, measured via a rectal probe, was maintained at 37° C. A microtip pressure transducer (SPR-320; Millar Instruments, Houston, Tex., USA) was inserted into the right carotid artery and advanced into the left ventricle under pressure control. After stabilization for 5 min, the signals were continuously recorded at a sampling rate of 1000 s−1. The microtip catheter was connected to a PowerLab Data Interface Module connected to a PC running LabChart professional software (version 7.3; ADI Instruments, Bella Vista, Australia) containing a blood pressure module.

Setting [5] is: oral 25 mg/kg/day in the last 6 weeks, p<0.05.

`O=c1c(O)c(-c2ccc(O)c(O)c2)oc2cc(O)cc(O)c12` [regular size quercetin, quercetin]: the “Cardiovascular function / cardioprotective effect (overall)” value in assay [1] is recorded as “failed to completely protect”. In assay [2], the “Diastolic blood pressure (DBP)” value was “partially reduced” and the “Systolic blood pressure (SBP)” value was “partially reduced”. Also, in assay [3], the JT interval result is “did not significantly improve” and the QTc interval result is recorded as “did not significantly improve”. Also, in assay [4] (p<0.05, 25 mg/kg/day), the “Cardiac contractility (contractility index)” value was “did not significantly affect”. Moreover, the “Cardiac contractility (contractility index)” value in assay [4] (p<0.05, listed as suspension of quercetin, 25 mg/kg/day) was “failed to affect”. In addition, in assay [4] (setting [5]), the “Diastolic function (−dP/dt, dp/dt min)” value is on record as “did not significantly affect” and the “Left ventricular systolic function (dP/dt max)” value was “did not significantly affect”.
